DBAASP
Values after ≈ are worked out from the molar mass of the structure shown. Values joined by “and” are separate entries in the source; they are usually repeats but may differ in a detail not shown here. Equal values may be shown once.

How the values were obtained:
Test in all cases: ≥ marks a high value that may be exact or a test limit, other limits are often not marked, values filed in µg/mL are converted to µM
Bacillus cereus = tested on: Bacillus cereus
Escherichia coli = tested on: Escherichia coli
Pseudomonas aeruginosa = tested on: Pseudomonas aeruginosa
Staphylococcus aureus = tested on: Staphylococcus aureus
[1] = tested on: Pseudomonas aeruginosa ATCC 27853
[2] = tested on: Escherichia coli ATCC 25922
[3] = tested on: Staphylococcus aureus ATCC 25923
[4] = tested on: Staphylococcus epidermidis ATCC 12228

| SMILES | MIC (Escherichia coli) | MIC (Pseudomonas aeruginosa) | MIC (Staphylococcus aureus) | further results |
| --- | --- | --- | --- | --- |
| CSCC[C@H](NC(=O)[C@H](C)NC(=O)[C@H](CCC(=O)O)NC(=O)CNC(=O)[C@@H](NC(=O)[C@H](Cc1ccccc1)NC(=O)[C@H](C)NC(=O)[C@H](CCCCN)NC(=O)CNC(=O)[C@H](Cc1ccccc1)NC(=O)[C@H](CCCN=C(N)N)NC(=O)[C@H](CCCCN)NC(=O)[C@H](C)NC(=O)[C@H](CO)NC(=O)[C@H](Cc1cnc[nH]1)NC(=O)[C@H](CC(C)C)NC(=O)[C@H](Cc1ccccc1)NC(=O)[C@H](CCCCN)NC(=O)CNC(=O)[C@H](CC(C)C)NC(=O)CN)C(C)C)C(=O)N[C@@H](CC(N)=O)C(=O)N[C@@H](CO)C(N)=O [GLGKFLHSAKRFGKAFVGEAMNS] | 75 µM (≈ 184 µg/mL) | > 75 µM | > 75 µM | – |
| CC[C@H](C)[C@H](N)C(=O)N[C@@H](CC(N)=O)C(=O)N[C@@H](Cc1c[nH]c2ccccc12)C(=O)N[C@@H](CCCCN)C(=O)N[C@@H](CCCCN)C(=O)N[C@H](C(=O)N[C@@H](C)C(=O)N[C@@H](CO)C(=O)N[C@H](C(=O)NCC(=O)N[C@@H](CCCCN)C(=O)N[C@@H](CCC(=O)O)C(=O)N[C@H](C(=O)N[C@@H](CC(C)C)C(=O)N[C@@H](CCCCN)C(=O)N[C@@H](C)C(=O)N[C@@H](CC(C)C)C(N)=O)C(C)C)[C@@H](C)CC)[C@@H](C)CC [INWKKIASIGKEVLKAL] | 7.3 µM and 5 µM and 2.5 µM | 86.6 µM (≈ 165 µg/mL) | 25.8 µM (≈ 49.3 µg/mL) | – |
| CC[C@H](C)[C@H](NC(=O)[C@H](CCCCN)NC(=O)[C@H](C)NC(=O)CNC(=O)[C@@H](NC(=O)[C@H](CCCCN)NC(=O)[C@@H](NC(=O)[C@H](CCCCN)NC(=O)[C@H](C)NC(=O)CNC(=O)[C@H](Cc1c[nH]c2ccccc12)NC(=O)[C@H](CCCCN)NC(=O)[C@@H](NC(=O)[C@H](CCCCN)NC(=O)[C@H](C)NC(=O)CNC(=O)[C@@H](NC(=O)[C@@H](N)CCCCN)[C@@H](C)CC)[C@@H](C)CC)[C@@H](C)CC)[C@@H](C)CC)C(N)=O [KIGAKIKWGAKIKIGAKI] | 4.16 µM (≈ 8 µg/mL) | 4.16 µM (≈ 8 µg/mL) | 4.16 µM (≈ 8 µg/mL) | – |
| CC[C@H](C)[C@H](NC(=O)[C@H](C)NC(=O)CNC(=O)[C@H](CCCCN)NC(=O)[C@@H](NC(=O)[C@H](CCCCN)NC(=O)[C@@H](NC(=O)[C@H](C)NC(=O)CNC(=O)[C@H](CCCCN)NC(=O)[C@H](Cc1c[nH]c2ccccc12)NC(=O)[C@H](CCCCN)NC(=O)[C@@H](NC(=O)[C@H](C)NC(=O)CNC(=O)[C@H](CCCCN)NC(=O)[C@@H](NC(=O)[C@@H](N)CCCCN)[C@@H](C)CC)[C@@H](C)CC)[C@@H](C)CC)[C@@H](C)CC)C(N)=O [KIKGAIKWKGAIKIKGAI] | 4.16 µM (≈ 8 µg/mL) | 8.32 µM (≈ 16 µg/mL) | 8.32 µM (≈ 16 µg/mL) | – |
| CC[C@H](C)[C@H](NC(=O)[C@H](C)NC(=O)CNC(=O)[C@@H](NC(=O)[C@H](CCCCN)NC(=O)[C@H](CCCCN)NC(=O)[C@@H](NC(=O)[C@H](C)NC(=O)CNC(=O)[C@H](Cc1c[nH]c2ccccc12)NC(=O)[C@H](CCCCN)NC(=O)[C@H](CCCCN)NC(=O)[C@@H](NC(=O)[C@H](C)NC(=O)CNC(=O)[C@@H](NC(=O)[C@H](CCCCN)NC(=O)[C@@H](N)CCCCN)[C@@H](C)CC)[C@@H](C)CC)[C@@H](C)CC)[C@@H](C)CC)C(N)=O [KKIGAIKKWGAIKKIGAI] | 66.5 µM (≈ 128 µg/mL) | 66.5 µM (≈ 128 µg/mL) | > 133 µM | – |
| CC[C@H](C)[C@H](NC(=O)[C@H](C)NC(=O)[C@H](CCCCN)NC(=O)[C@H](CC(C)C)NC(=O)[C@H](C)NC(=O)[C@@H](NC(=O)[C@H](Cc1cnc[nH]1)NC(=O)[C@H](C)NC(=O)[C@@H](NC(=O)[C@@H](NC(=O)[C@H](CCCCN)NC(=O)[C@H](CCCCN)NC(=O)[C@H](C)NC(=O)[C@H](CO)NC(=O)[C@H](CCCCN)NC(=O)[C@H](Cc1ccccc1)NC(=O)[C@@H](NC(=O)[C@H](CCCCN)NC(=O)[C@H](C)NC(=O)[C@H](Cc1ccccc1)NC(=O)[C@H](CO)NC(=O)[C@H](CCCCN)NC(=O)[C@H](Cc1c[nH]c2ccccc12)NC(=O)[C@H](CCCCN)NC(C)=O)[C@@H](C)O)[C@@H](C)O)C(C)C)[C@@H](C)O)C(=O)N[C@@H](CO)C(=O)N[C@@H](CO)C(N)=O [KWKSFAKTFKSAKKTVAHTALKAISS] | – | – | – | MIC [1]: 125 µM (≈ 363 µg/mL); MIC [2]: 125 µM (≈ 363 µg/mL); MIC [3]: 125 µM (≈ 363 µg/mL); MIC [4]: 125 µM (≈ 363 µg/mL) |
| CC[C@H](C)[C@H](NC(=O)[C@H](Cc1ccccc1)NC(=O)[C@H](CO)NC(=O)[C@H](CCCCN)NC(=O)[C@H](Cc1c[nH]c2ccccc12)NC(=O)[C@@H](N)CCCCN)C(=O)N[C@@H](CCCCN)C(=O)N[C@@H](CCCCN)C(=O)N[C@@H](CC(C)C)C(=O)N[C@H](C(=O)N[C@@H](CO)C(=O)N[C@@H](CCCCN)C(=O)N[C@@H](Cc1ccccc1)C(=O)N[C@@H](CC(C)C)C(=O)N[C@@H](Cc1cnc[nH]1)C(=O)N[C@@H](CO)C(=O)N[C@@H](C)C(=O)N[C@@H](CCCCN)C(=O)N[C@@H](CCCCN)C(=O)N[C@@H](CC(N)=O)C(N)=O)[C@@H](C)O [KWKSFIKKLTSKFLHSAKKN] | – | 2.58 µM (≈ 6.25 µg/mL) | – | – |
| CC[C@H](C)[C@H](NC(=O)[C@H](Cc1c[nH]c2ccccc12)NC(=O)[C@H](CCCN=C(N)N)NC(=O)[C@H](CCC(N)=O)NC(=O)[C@@H](NC(=O)[C@H](Cc1c[nH]c2ccccc12)NC(=O)[C@H](CCCN=C(N)N)NC(=O)[C@@H](N)CCCN=C(N)N)C(C)C)C(=O)N[C@@H](CCCN=C(N)N)C(=O)N[C@@H](CCCN=C(N)N)C(=O)N[C@@H](Cc1c[nH]c2ccccc12)C(=O)N[C@@H](CCCN=C(N)N)C(=O)N[C@@H](CCCCN)C(=O)N[C@@H](Cc1c[nH]c2ccccc12)C(=O)N[C@H](C(=O)O)C(C)C [RRWVQRWIRRWRKWV] | – | 20 µM (≈ 45.4 µg/mL) | 20 µM (≈ 45.4 µg/mL) | – |
| CC[C@H](C)[C@H](NC(=O)CNC(=O)[C@H](CC(C)C)NC(=O)[C@@H](NC(=O)[C@H](Cc1ccc(O)cc1)NC(=O)[C@@H](NC(=O)[C@H](CO)NC(=O)[C@@H](NC(=O)[C@@H]1CCCN1C(=O)[C@@H](NC(=O)[C@@H](N)CO)C(C)C)[C@@H](C)O)C(C)C)[C@@H](C)O)C(=O)N[C@@H](CCCCN)C(=O)N[C@H](C(=O)N[C@@H](CC(C)C)C(=O)N[C@@H](Cc1c[nH]c2ccccc12)C(=O)N[C@@H](CO)C(=O)N[C@@H](C)C(=O)N[C@@H](Cc1ccc(O)cc1)C(=O)N[C@@H](CCCCN)C(=O)N[C@@H](Cc1cnc[nH]1)C(=O)O)[C@@H](C)CC [SVPTSVYTLGIKILWSAYKH] | – | – | – | MIC [4]: 50 µM (≈ 113 µg/mL) |
| CC(C)C[C@H](NC(=O)[C@H](Cc1ccc(O)cc1)NC(=O)[C@H](Cc1ccc(O)cc1)NC(=O)CNC(=O)[C@H](Cc1c[nH]c2ccccc12)NC(=O)[C@@H](N)CO)C(=O)NCC(=O)N[C@@H](CCCCN)C(=O)N[C@@H](CCCCN)C(=O)N[C@@H](C)C(=O)N[C@@H](CCCN=C(N)N)C(=O)N[C@@H](Cc1c[nH]c2ccccc12)C(=O)N[C@@H](CC(N)=O)C(=O)N[C@@H](CC(C)C)C(=O)N[C@@H](CCCCN)C(=O)N[C@@H](Cc1cnc[nH]1)C(=O)N1CCC[C@H]1C(=O)N[C@@H](Cc1ccc(O)cc1)C(=O)N[C@H](C(=O)N[C@@H](CCC(N)=O)C(=O)N[C@@H](Cc1ccccc1)C(=O)O)C(C)C [SWGYYLGKKARWNLKHPYVQF] | – | – | – | MIC [4]: > 50 µM |
| CC(C)C[C@H](NC(=O)[C@H](Cc1ccc(O)cc1)NC(=O)[C@H](Cc1ccc(O)cc1)NC(=O)CNC(=O)[C@H](Cc1c[nH]c2ccccc12)NC(=O)[C@@H](N)CO)C(=O)NCC(=O)O [SWGYYLG] | – | – | – | MIC [4]: > 50 µM |

Now from value to compound, other results behind:

| MIC (Escherichia coli) | MIC (Pseudomonas aeruginosa) | MIC (Staphylococcus aureus) | SMILES | further results |
| --- | --- | --- | --- | --- |
| > 119 µM | – | – | CC[C@H](C)[C@H](NC(=O)CNC(=O)[C@H](C)NC(=O)[C@H](Cc1ccc(O)cc1)NC(=O)[C@@H](NC(=O)[C@H](CC(C)C)NC(=O)[C@H](C)N)C(C)C)C(=O)N[C@@H](CCCCN)C(=O)N[C@@H](CCCCN)C(=O)N[C@H](C(=O)N[C@@H](C)C(=O)N[C@@H](Cc1ccccc1)C(=O)N[C@@H](CC(C)C)C(=O)N[C@@H](CCCCN)C(=O)N[C@H](C(=O)N[C@@H](CCC(N)=O)C(=O)N[C@@H](CCCCN)C(=O)N[C@@H](CS)C(=O)N[C@@H](CC(=O)O)C(=O)NCC(=O)O)C(C)C)[C@@H](C)O [ALVYAGIKKTAFLKVQKCDG] | MIC (Bacillus cereus): ≥ 119 µM |
| > 124 µM | – | – | CSCC[C@H](NC(=O)[C@@H](N)Cc1ccccc1)C(=O)N[C@@H](CCCCN)C(=O)N[C@H](C(=O)N[C@@H](CC(C)C)C(=O)N[C@@H](C)C(=O)N[C@H](C(=O)N[C@@H](Cc1ccccc1)C(=O)NCC(=O)N[C@@H](CO)C(=O)N[C@H](C(=O)N[C@H](C(=O)N[C@H](C(=O)N[C@@H](CO)C(=O)N[C@@H](C)C(=O)N1CCC[C@H]1C(=O)N[C@@H](CCCCN)C(=O)N[C@@H](C)C(=O)N[C@@H](CO)C(=O)N[C@@H](CCCCN)C(=O)O)[C@@H](C)O)C(C)C)C(C)C)C(C)C)C(C)C [FMKVLAVFGSVVTSAPKASK] | MIC (Bacillus cereus): ≥ 124 µM |
| > 118 µM | – | – | CC[C@H](C)[C@H](NC(=O)[C@H](CCCCN)NC(=O)[C@@H](NC(=O)[C@@H](NC(=O)[C@H](Cc1ccc(O)cc1)NC(=O)[C@@H](NC(=O)[C@@H](N)CCCCN)C(C)C)C(C)C)C(C)C)C(=O)N[C@@H](C)C(=O)N[C@H](C(=O)N1CCC[C@H]1C(=O)N[C@@H](CS)C(=O)N[C@@H](Cc1ccccc1)C(=O)N1CCC[C@H]1C(=O)N[C@@H](CCCCN)C(=O)N[C@@H](CO)C(=O)N[C@@H](C)C(=O)N[C@@H](CCCN=C(N)N)C(=O)N[C@@H](CO)C(=O)N[C@H](C(=O)N[C@@H](CO)C(=O)O)C(C)C)C(C)C [KVYVVKIAVPCFPKSARSVS] | MIC (Bacillus cereus): ≥ 118 µM |
| 59.8 µM (≈ 128 µg/mL) | – | – | CC(C)C[C@H](NC(=O)[C@H](CCCCN)NC(=O)[C@H](Cc1ccccc1)NC(=O)[C@@H](NC(=O)[C@H](C)NC(=O)[C@@H]1CCCN1C(=O)[C@@H](N)CC(C)C)C(C)C)C(=O)N[C@@H](C)C(=O)N[C@@H](CO)C(=O)N[C@@H](CCCCN)C(=O)N[C@H](C(=O)N[C@@H](Cc1ccccc1)C(=O)N1CCC[C@H]1C(=O)N[C@@H](C)C(=O)N[C@H](C(=O)N[C@@H](Cc1ccc(O)cc1)C(=O)N[C@@H](CS)C(=O)N[C@@H](CCCCN)C(=O)N[C@@H](C)C(=O)N[C@@H](CO)C(=O)O)C(C)C)C(C)C [LPAVFKLASKVFPAVYCKAS] | MIC (Bacillus cereus): ≥ 120 µM |
